# Entries after “also recorded” stand apart in the source; their conditions may differ.
# Experiments:
# [1] = test system: HCT-116 cells; test: SRB cytotoxicity assay, HCT-116; assay type: cell-based, human; conditions: for IC50: Homo sapiens, HCT-116, SRB assay, 72 h exposure, ± SEM
# Description: Compounds in this study were tested against colorectal cancer cell line HCT-116, using sulforhodamine-B (SRB) assay. See Skehan, P.; Storeng, R.; Scudiero, D.; Monks, A.; McMahon, J.; Vistica, D.; Warren, J. T.; Bokesch, H.; Kenney, S.; Boyd, M. R., New colorimetric cytotoxicity assay for anticancer-drug screening. J Natl Cancer Inst 1990, 82 (13), 1107-12, incorporated herein by reference in its entirety. […] However, it was clear that compounds bearing hydrophobic aliphatic groups such as MOS-1505 and MOS-1512 are clearly favored in providing anticancer activities. […] The N-aryl substituents were less advantageous in both potency and solubility.
# (§1) Different cell lines were originally purchased from American type culture collection (ATCC, Wesel, Germany) and grown in the tissue culture lab of the Egyptian company for production of vaccines, sera and drugs (Vacsera, Giza, Egypt). The cells were transferred to our laboratory and maintained in the appropriate media as following. HCT-116, CACO-2, and HT-29 (human colon cancer cell lines) were maintained in Roswell Park Memorial Institute medium (RPMI1640) (Invitrogen, Carlsbad, Calif.). The mouse skin fibroblasts (C-166) and Baby Hamster Kidney fibroblasts (BHK) were grown in Dulbecco Modified Eagle's medium (DMEM). Both media were supplemented with 1% of […] of streptomycin, 100 units/mL of penicillin and 10% of heat-inactivated fetal bovine serum (Invitrogen, Carlsbad, Calif.) in a humidified, 5% (v/v) CO2 atmosphere at 37° C.
# (§2) The sulforhodamine B (SRB) assays were performed according to Skehan, P.; Storeng, R.; Scudiero, D.; Monks, A.; McMahon, J.; Vistica, D.; Warren, J. T.; Bokesch, H.; Kenney, S.; Boyd, M. R., New colorimetric cytotoxicity assay for anticancer-drug screening. J Natl Cancer Inst 1990, 82 (13), 1107-12, incorporated herein by reference in its entirety. Briefly, exponentially growing cells were trypsinized, counted and seeded at the appropriate densities (5000 cells/100 μL/well) into 96-well microtiter plates. Cells were incubated in a humidified atmosphere at 37° C. for 24 h. Then, the cells were exposed to different compounds at the desired concentrations, (0.01, 0.1, 1, 10, and 100 μM) or to 1% dimethyl sulfoxide (DMSO) for 72 h. At the end of the treatment period, the media were removed, and the cells were fixed with 10% trichloroacetic acid at 4° C. for 1 hr. Following, the cells were washed with tap water four times and incubated with SRB 0.4% for 30 min. Excess dye was removed by washing repeatedly with 1% (vol/vol) acetic acid. The protein-bound dye was dissolved in 10 mM Tris base solution for (optical density) OD determination at 510 nm using a SpectraMax plus Microplate Reader (Molecular Devices, CA). Cell viability was expressed relative to the untreated control cells.
# [2] = test system: CACO-2 cells; test: SRB cytotoxicity assay, CACO-2; assay type: cell-based, human; conditions: Homo sapiens, Caco-2, 72 h exposure, ± SEM
# Description: (§3) Based on the favorable pharmacologic and physicochemical properties of MOS-1512, it was selected as a new lead for the second subset of compounds (MOS-1812 to MOS-5112). The compounds in this series contained variable groups at R^1 and R^2 that were all tested against the three cancer cell lines (HCT-116, Caco-2 and HT-29).
# as §1, §2
# [3] = test system: HT-29 cells; test: SRB cytotoxicity assay, HT-29; assay type: cell-based, human; conditions: Homo sapiens, HT-29, monolayer, 72 h exposure, ± SEM
# Description: as §3, §1, §2
# [4] = test system: C-166 mouse skin fibroblasts; test: Selectivity versus normal C-166 fibroblasts; assay type: cell-based; conditions: HCT-116, Caco-2 and HT-29 versus C-166
# Description: FIG. 3A is a graph illustrating the dose-response curve of compound 1512 on HCT-116 cell lines and C-166 cell line;
# See El-Araby, M. E.; Omar, A. M.; Khayat, M. T.; Assiri, H. A.; Al-Abd, A. M., Molecular Mimics of Classic P-Glycoprotein Inhibitors as Multidrug Resistance Suppressors and Their Synergistic Effect on Paclitaxel. PLoS One 2017, 12 (1), e0168938, incorporated herein by reference in its entirety.
# Different cell lines were originally purchased from American type culture collection (ATCC, Wesel, Germany) and grown in the tissue culture lab of the Egyptian company for production of vaccines, sera and drugs (Vacsera, Giza, Egypt). The cells were transferred to our laboratory and maintained in the appropriate media as following. […]
# The sulforhodamine B (SRB) assays were performed according to Skehan, P.; Storeng, R.; Scudiero, D.; Monks, A.; McMahon, J.; Vistica, D.; Warren, J. T.; Bokesch, H.; Kenney, S.; Boyd, M. R., New colorimetric cytotoxicity assay for anticancer-drug screening. […] Briefly, exponentially growing cells were trypsinized, counted and seeded at the appropriate densities (5000 cells/100 μL/well) into 96-well microtiter plates. […] The protein-bound dye was dissolved in 10 mM Tris base solution for (optical density) OD determination at 510 nm using a SpectraMax plus Microplate Reader (Molecular Devices, CA). […]
# [5] = Solubility profile; assay type: physicochemical; conditions: stated in words together with C log P
# [6] = test system: HCT-116 cells; test: Nuclear fragmentation by DAPI staining; assay type: cell-based, human; conditions: 32 μM (IC50 concentration), 48 hours
# Description: Several assays were performed to determine the apoptotic effect of the early lead MOS-1512 as well as the potent derivative MOS-4112 on HCT-116 cells. […] See Drutovic, D.; Chripkova, M.; Pilatova, M.; Kruzliak, P.; Perjesi, P.; Sarissky, M.; Lupi, M.; Damia, G.; Broggini, M.; Mojzis, J., Benzylidenetetralones, cyclic chalcone analogues, induce cell cycle arrest and apoptosis in HCT116 colorectal cancer cells. Tumour Biol 2014, 35 (10), 9967-75, incorporated herein by reference in its entirety.
# Cells were cultured on sterile 22 mm^2 cover slips (Harvard Apparatus, MA, USA) in sterile six well plates at a density of 2×10^5 cells/well. […] The fixed and permeabilized cells nuclei were denatured with 2 N HCl (300 μl) for 10 min, washed three times more, and treated with 0.1 μg/ml 4′,6′-diamidino-2-phenylindole, dihydrochloride (DAPI) (Sigma-Aldrich, St. Louis, Mo., USA) (1:1000) in (phosphate-buffered saline-Tween 20 (PBST) for 1 hr. After staining, the cells were washed twice with PBS. The cover slips were then mounted on a glass slide with anti-fade mounting medium and viewed with an epifluorescence microscope, Leica, DM 5500 B (Leica, Buffalo Grove, Ill., USA) at a magnification of 60×, and data were captured digitally and quantified using the microscope provided software.
# [7] = Acute oral toxicity (LD50), OECD guideline 423; assay type: in vivo; conditions: both sexes, Swiss albino, mouse, in vivo, po
# Description: (§4) Since compounds with electrophilic properties, e.g., MA are usually involved in a variety of toxic effects on mammalians, the general acute toxicity of 1512, 3712 and 4112 was investigated by determining the in vivo lethal dose (LD50) according to the Globally Harmonized Classification System (GHS) and following the Organization for Economic Cooperation and Development (OECD) guideline 423 (modified, adopted Mar. 23, 2006). As observed in the cellular assay, the compound safety was confirmed, as the LD50 for all compounds were between 2000-5000 mg/kg (Category 5). See Spielmann, H.; Genschow, E.; Liebsch, M.; Halle, W., Determination of the starting dose for acute oral toxicity (LD50) testing in the up and down procedure (UDP) from cytotoxicity data. ATLA 1999, 27 (6), 957-966, incorporated herein by reference in its entirety.
# (§5) The experiment was conducted on 12 healthy Swiss albino mice (males and females) weighing 22-27 g and aged 8 to 10 weeks obtained from the Animal Station, Pharmacology Dept, Faculty of Pharmacy, King Abdulaziz University, Jeddah. See Shoieb, S. M.; Esmat, A.; Khalifa, A. E.; Abdel-Naim, A. B., Chrysin attenuates testosterone-induced benign prostate hyperplasia in rats. Food and Chemical Toxicology 2018, 111, 650-659, incorporated herein by reference in its entirety. All animals were kept at the regulated temperature (average 23° C.), air quality (Central air conditioning) and light (12-h light/dark cycles). Animals were provided free access to food pellets ad libitum and water. The experimental procedure was approved by the Research Ethics Committee, Faculty of Pharmacy, King Abdulaziz University prior to starting the laboratory work. Animals were humanely treated according to international and scientific principles. Changes other than vitality of the animals such as behavioral and food consumption habits were not observed in this study.
# (§6) The compounds 1512, 3712 and 4112 of purity 95% or more (LC/MS) were prepared for this study as 10% suspension in water containing 0.5% tween 80.
# (§7) The animals were distributed randomly into four groups (3 mice at each group). […] The second group received an oral dose of 2000 mg/Kg of the drug and observed after 24 h to count the deceased animals. According to the Guideline 423, when all animals were found alive, the same test was repeated (dose 2000 mg/kg) were given to the third group (3 animals) and observed for 24 h. All animals survived and therefore, a dose of 5000 mg/kg were administered to the fourth and final group.
# [8] = test system: Swiss albino mice; test: Acute oral toxicity (LD50), OECD guideline 423; assay type: in vivo; conditions: both, Swiss albino, mouse, in vivo, po, 24 h
# Description: as §4, §5, §6, §7
# [9] = test system: CRC cell lines (HCT-116, Caco-2 and HT-29); test: Cytotoxic activities against CRC cell lines (statement over three lines); assay type: cell-based; conditions: Homo sapiens
# Description: as §3, §1, §2
# [10] = test system: HT-29 colon cancer cell spheroids (cancer stem cells); test: Primary (1°) colonosphere formation assay; assay type: cell-based, human
# Description: Compound 4112 and another potent compound 3712 were also evaluated for their ability to inhibit cancer stem cell proliferation using a primary (1°) colonosphere formation assay. In this assay, HT-29 colon cancer cells were grown in low adhesion plates to form spheres as previously described. See Patel, N. J.; Karuturi, R.; Al-Horani, R. A.; Baranwal, S.; Patel, J.; Desai, U. R.; Patel, B. B., Synthetic, non-saccharide, glycosaminoglycan mimetics selectively target colon cancer stem cells. ACS Chem Biol 2014, 9 (8), 1826-33, incorporated herein by reference in its entirety. Wells treated with the inventive compounds were compared to vehicle treated cells for primary sphere growth inhibition after 5 days of incubation. […] Of note, monolayer growth conditions are ideally suited for examining cellular proliferation, whereas spheroid growth conditions examine cancer stem cell growth and self-renewal properties.
# For primary sphere formation, cells were plated in nontreated, low adhesion, 96 wells plate at the concentration of 100 cells/100 μL/well in stem cell media (SCM) that consisted of DMEM:F12:AA (Gibco), supplemented with 1×B27 (Gibco), 20 ng/mL epidermal growth factor, and 10 ng/mL fibroblast growth factor (Sigma). After 4 h of incubation, vehicle (control) or 3712 and 4112 at the desired concentrations were added to each well (at least in triplicates for each sample). On day five, numbers of spheres ranging from […] in diameter were counted using phase contrast microscope and percent inhibition was calculated compared to control.
SMILES,IC50 [1],"cancer cell resistance (R-value) ([1]; dose-response curve, FIG. 3A)",IC50 [2],IC50 [3],selectivity in killing cancer cells versus normal cells [4],solubility [5],"nuclear structure/morphology, DAPI staining [6]",LD50 at 24 h [7],GHS acute toxicity category [8],IC50 [9],"IC50 ([10]; Homo sapiens, 120 h, HT-29 spheres, 5 days of incubation)","inhibition of colon cancer spheroids formation ([10]; spheroids >50 μm, 5 days)"
"CCCNC(=O)/C(=C/c1ccccc1)NC(=O)/C=C/c1ccccc1 [Compound 1512, (Z)-2-[(E)-cinnamamido]-3-phenyl-N-propylacrylamide]",32 ± 2.6 µM,8.2%,38 ± 0.87 µM,35.5 ± 1.7 µM,high selectivity,better solubility profile,very strong blue fluorescence; also recorded: nuclear condensation and fragmentation,2000 to 5000 mg/kg,Category 5,,,
"CCCNC(=O)/C(=C/c1c[nH]c2ccccc12)NC(=O)C=Cc1ccccc1 [Compound 3712, (Z)-2-cinnamamido-3-(1H-indol-3-yl)-N-propylacrylamide]",1.65 ± 0.05 µM,,2.1 ± 0.03 µM,2.36 ± 0.04 µM,,,,2000 to 5000 mg/kg,Category 5,< 5 µM,21.1 ± 1.3 µM,dose-dependent inhibition
